Measured values reported in US10376520B2, “Methods for the treatment of cardiovascular disorders” (Galapagos NV, priority 2015, dated 2019).

System: RA patients
Test: Atherogenic index, Study 1 (RA patients, add-on to MTX)
Assay type: in vivo, human
Procedure: As used herein, the term ‘atherogenic index’ refers to
Double-blind, placebo-controlled add on study in subjects with moderately to severely active RA who have an inadequate response to methotrexate (MTX) (oral or parenteral).
Compound 1 (dosed as a [Compound 1:HCl:3H2O]) is dosed for twelve weeks once daily (q.d.) (50 mg, 100 mg or 200 mg) or twice daily (b.i.d.) (25 mg, 50 mg or 100 mg); or placebo.
At Week 12, the subjects on placebo who have not achieved 20% improvement in swollen joint count (SJC66) and tender joint count (TJC68) are re-randomized automatically to receive Compound 1 (dosed as a [Compound 1:HCl:3H2O]) either at 100 mg q.d. or 50 mg b.i.d. doses in a blinded fashion; subjects on 50 mg q.d. who have not achieved 20% improvement in SJC66 and TJC68 will be assigned to 100 mg q.d. and subjects on 25 mg b.i.d. that have not achieved a 20% improvement in SJC66 and TJC68 will be assigned to 50 mg b.i.d. Subjects who switch treatment at week 12 are handled as if they discontinued at week 12 for the purpose of statistical analysis, whereas subjects in the other groups will maintain their randomized treatment until Week 24.
The atherogenic index has been identified to be a good predictor of cardiovascular disorders risks and is calculated as follows: […]

[1] = 100 mg b.i.d. continued over 24 weeks, week 1
[2] = 100 mg b.i.d. continued over 24 weeks, week 2
[3] = 100 mg b.i.d. continued over 24 weeks, week 4
[4] = 100 mg b.i.d. continued over 24 weeks, week 8
[5] = 100 mg b.i.d. continued over 24 weeks, week 12
[6] = 100 mg b.i.d. continued over 24 weeks, week 16
[7] = 100 mg b.i.d. continued over 24 weeks, week 20
[8] = 100 mg b.i.d. continued over 24 weeks, week 24
[9] = 100 mg q.d. continued over 24 weeks, week 1
[10] = 100 mg q.d. continued over 24 weeks, week 2
[11] = 100 mg q.d. continued over 24 weeks, week 4
[12] = 100 mg q.d. continued over 24 weeks, week 8
[13] = 100 mg q.d. continued over 24 weeks, week 12
[14] = 100 mg q.d. continued over 24 weeks, week 16
[15] = 100 mg q.d. continued over 24 weeks, week 20
[16] = 100 mg q.d. continued over 24 weeks, week 24

O=C(Nc1nc2cccc(-c3ccc(CN4CCS(=O)(=O)CC4)cc3)n2n1)C1CC1 [Compound 1, cyclopropanecarboxylic acid {5-[4-(1,1-dioxo-thiomorpholin-4-ylmethyl)-phenyl]-[1,2,4]triazolo[1,5-a]pyridin-2yl}-amide]
Atherogenic index Median CFB - 12 weeks results (50 mg q.d., week 1): -0.10 mmol/L
Atherogenic index Mean CFB (50 mg q.d., week 2): -0.13 mmol/L
Atherogenic index Mean percentage CFB - 12 weeks results (50 mg q.d., week 2): −3%
Atherogenic index Median CFB - 12 weeks results (50 mg q.d., week 2): -0.20 mmol/L
Atherogenic index Mean CFB (50 mg q.d., week 4): -0.11 mmol/L
Atherogenic index Mean percentage CFB - 12 weeks results (50 mg q.d., week 4): −3%
Atherogenic index Median CFB - 12 weeks results (50 mg q.d., week 4): -0.10 mmol/L
Atherogenic index Mean CFB (50 mg q.d., week 8): -0.03 mmol/L
Atherogenic index Mean percentage CFB - 12 weeks results (50 mg q.d., week 8): 0%
Atherogenic index Median CFB - 12 weeks results (50 mg q.d., week 8): -0.10 mmol/L
Atherogenic index Mean CFB (50 mg q.d., week 12): 0.01 mmol/L
Atherogenic index Mean percentage CFB - 12 weeks results (50 mg q.d., week 12): 2%
Atherogenic index Median CFB - 12 weeks results (50 mg q.d., week 12): 0.00 mmol/L
Atherogenic index Mean CFB - 24 weeks results [1]: -0.05 mmol/L
Atherogenic index Mean percentage CFB - 24 weeks results [1]: −0.38%
Atherogenic index Median CFB - 24 weeks results [1]: 0.00 mmol/L
Atherogenic index Mean CFB - 24 weeks results [2]: -0.19 mmol/L
Atherogenic index Mean percentage CFB - 24 weeks results [2]: −4.84%
Atherogenic index Median CFB - 24 weeks results [2]: -0.20 mmol/L
Atherogenic index Mean CFB - 24 weeks results [3]: -0.30 mmol/L
Atherogenic index Mean percentage CFB - 24 weeks results [3]: −6.94%
Atherogenic index Median CFB - 24 weeks results [3]: -0.30 mmol/L
Atherogenic index Mean CFB - 24 weeks results [4]: -0.18 mmol/L
Atherogenic index Mean percentage CFB - 24 weeks results [4]: −3.54%
Atherogenic index Median CFB - 24 weeks results [4]: -0.20 mmol/L
Atherogenic index Mean CFB - 24 weeks results [5]: -0.24 mmol/L
Atherogenic index Mean percentage CFB - 24 weeks results [5]: −4.76%
Atherogenic index Median CFB - 24 weeks results [5]: -0.20 mmol/L
Atherogenic index Mean CFB - 24 weeks results [6]: -0.25 mmol/L
Atherogenic index Mean percentage CFB - 24 weeks results [6]: −5.23%
Atherogenic index Median CFB - 24 weeks results [6]: -0.30 mmol/L
Atherogenic index Mean CFB - 24 weeks results [7]: -0.24 mmol/L
Atherogenic index Mean percentage CFB - 24 weeks results [7]: −5.40%
Atherogenic index Median CFB - 24 weeks results [7]: -0.20 mmol/L
Atherogenic index Mean CFB - 24 weeks results [8]: -0.18 mmol/L
Atherogenic index Mean percentage CFB - 24 weeks results [8]: −3.70%
Atherogenic index Median CFB - 24 weeks results [8]: -0.20 mmol/L
Atherogenic index Mean CFB - 24 weeks results [9]: -0.06 mmol/L
Atherogenic index Mean percentage CFB - 24 weeks results [9]: −0.13%
Atherogenic index Median CFB - 24 weeks results [9]: -0.10 mmol/L
Atherogenic index Mean CFB - 24 weeks results [10]: -0.17 mmol/L
Atherogenic index Mean percentage CFB - 24 weeks results [10]: −2.80%
Atherogenic index Median CFB - 24 weeks results [10]: -0.10 mmol/L
Atherogenic index Mean CFB - 24 weeks results [11]: -0.11 mmol/L
Atherogenic index Median CFB - 24 weeks results [11]: -0.10 mmol/L
Atherogenic index Mean CFB - 24 weeks results [12]: -0.11 mmol/L
Atherogenic index Mean percentage CFB - 24 weeks results [12]: −1.34%
Atherogenic index Median CFB - 24 weeks results [12]: -0.10 mmol/L
Atherogenic index Mean CFB - 24 weeks results [13]: -0.06 mmol/L
Atherogenic index Mean percentage CFB - 24 weeks results [13]: −0.45%
Atherogenic index Median CFB - 24 weeks results [13]: -0.10 mmol/L
Atherogenic index Mean CFB - 24 weeks results [14]: -0.18 mmol/L
Atherogenic index Mean percentage CFB - 24 weeks results [14]: −3.49%
Atherogenic index Median CFB - 24 weeks results [14]: -0.20 mmol/L
Atherogenic index Mean CFB - 24 weeks results [15]: -0.27 mmol/L
Atherogenic index Mean percentage CFB - 24 weeks results [15]: −5.64%
Atherogenic index Median CFB - 24 weeks results [15]: -0.35 mmol/L
Atherogenic index Mean CFB - 24 weeks results [16]: -0.17 mmol/L
Atherogenic index Mean percentage CFB - 24 weeks results [16]: −3.81%
Atherogenic index Median CFB - 24 weeks results [16]: -0.30 mmol/L
Atherogenic index Mean CFB (100 mg q.d., week 1): -0.06 mmol/L
Atherogenic index Mean percentage CFB - 12 weeks results (100 mg q.d., week 1): 0%
Atherogenic index Median CFB - 12 weeks results (100 mg q.d., week 1): -0.10 mmol/L
Atherogenic index Mean CFB (100 mg q.d., week 2): -0.17 mmol/L
Atherogenic index Mean percentage CFB - 12 weeks results (100 mg q.d., week 2): −3%
Atherogenic index Median CFB - 12 weeks results (100 mg q.d., week 2): -0.10 mmol/L
Atherogenic index Mean CFB (100 mg q.d., week 4): -0.11 mmol/L
Atherogenic index Mean percentage CFB - 12 weeks results (100 mg q.d., week 4): −2%
Atherogenic index Median CFB - 12 weeks results (100 mg q.d., week 4): -0.10 mmol/L
Atherogenic index Mean CFB (100 mg q.d., week 8): -0.11 mmol/L
Atherogenic index Mean percentage CFB - 12 weeks results (100 mg q.d., week 8): −1%
Atherogenic index Median CFB - 12 weeks results (100 mg q.d., week 8): -0.10 mmol/L
Atherogenic index Mean CFB (100 mg q.d., week 12): -0.06 mmol/L
Atherogenic index Mean percentage CFB - 12 weeks results (100 mg q.d., week 12): 0%
